Measurements published in patent publication US11965161B2, “Methods and compositions for sensitization of tumor cells to immune therapy” (Regeneron Pharmaceuticals, Inc., priority 2020, dated 2024).
“Also recorded” adds a separate entry of the source. Residues, ends and D or L forms follow the SMILES beside them. *: point of attachment. Cbz = O=C(OCc1ccccc1)*; CH2F = FC*

Tests used:
[1] = system: multiple mouse and human cancer cell lines; test: TNFα-mediated killing in a panel of cancer cell lines with or without autophagy inhibitor; format: cell-based; conditions: 10 ng/ml TNFα, 5 μM inhibitor, 24 hours, EMT6, LL/2, CT26, Colon26, BT-20, Me-180, MDA-MB-361, ZR-75-1
Protocol: (§1) The effects of TNFα, TRAIL, doxorubicin or paclitaxel on cell viability were assessed following 24 hour incubations at the indicated concentrations. The effects of 5 μM autophinib or SAR-405 on TNFα (10 ng/ml) or TRAIL (10 ng/ml or 50 ng/ml) induced killing were assessed following 24 hour incubations unless otherwise indicated. In all cases, cell viability was measured using CCK8 cell counting kit-8 (CCK-8) reagent, which is reduced by dehydrogenase activities in cells to give a yellow-colored formazan dye (Dojindo). The absorbance was measured using a SpectraMax M3 microplate reader (Molecular Devices).

[2] = system: ZR-75-1 human breast cancer cells; test: Western blots of ZR-75-1 cells (p62, caspase-8); format: cell-based; conditions: 5 μM inhibitor, 16 hours; for p62 levels: ZR-75-1 cells; for TNFα-induced activation of caspase-8: human breast cancer cells ZR-75-1, 10 ng/ml TNFα
Protocol: (§2) Whole cell lysates were prepared in tris-glycine SDS sample buffer (ThermoFisher) containing 5% 2-mercaptoethanol. Western blotting was performed by conventional techniques using tris-glycine polyacrylamide SDS gels (ThermoFisher) and PVDF membranes (BioRad). Blots were blocked in 5% milk powder and 0.5% Tween-20 in TBS and then incubated overnight with primary antibodies. After addition of secondary antibodies, membranes were incubated with SuperSignal West Pico Plus or Femto substrate (ThermoFisher) and luminescence was captured with a C300 imager (Azure Biosystems). Primary antibodies against TAK1, Rbck1, Re1A p65, Rb1cc1, Atg12, cleaved caspase-8, procaspase-8, RIPK1, RIPK1 phospo-Ser321, RIPK1 phospho-Ser166, Iκ-Bα, A20, p62, phospho-p65, LC3B, TNFR1 (CST), Atg9a (Novus), cIAP1 (Enzo), β2M (ThermoFisher), FADD and ICAM (Abcam) were used. Horseradish peroxidase-conjugated β-Actin antibody and secondary antibodies against mouse IgG, rabbit IgG and goat IgG were from Santa Cruz Biotechnology.

[3] = system: ZR-75-1 human breast cancer cells; test: CD3 bispecific antibody-induced killing of ZR-75-1 cells by human T cells; format: cell-based; conditions: 12 ng/ml bispecific antibody, 5 μM SAR-405, 24 hours
From the text: CD8^+ T cells were isolated from spleens and lymph nodes of 6-8 week old male OT-1 mice. These mice contain transgenic inserts for mouse Tcra-V2 and Tcrb-V5 genes. The transgenic T cell receptor was designed to recognize ovalbumin peptide residues 257-264 in the context of H-2Kb MHC class I protein. In some experiments, human CD8+ T cells were isolated from PBMCs. T cells were activated in vitro with CD3/CD28 beads at a 1:2 bead:cell ratio for 2-3 days. T cells were activated in RPMI-1640 medium containing 20 ng/ml mouse IL-2, 10% heat inactivated fetal bovine serum, 20 mM HEPES, 2 mM L-glutamine, 1 mM sodium pyruvate, 0.05 mM 2-mercaptoethanol and 50 U/ml penicillin/streptomycin. For human tumor cell killing experiments using CD3 bispecific antibody, human T cells were isolated from peripheral blood mononuclear cells (PBMCs) (ReachBio) using Dynabeads Untouched Human T Cells Kit (Thermo Fisher Scientific).
Human ZR-75-1 cells were seeded at 100,000 cells per 24 well. After 24 hours, cells were incubated with activated CD8^+ T cells (isolated from human PBMCs) at the indicated E:T ratios for 24 hours in the presence of 12 ng/ml breast tumor antigen×CD3 or control (doesn't bind to ZR-75-1 cells) bispecific antibodies in the absence or presence of 5 μM autophagy inhibitor SAR-405.

[4] = system: MC38 cells; test: TNFα-induced killing of MC38 cells, cell viability (CCK-8); format: cell-based, mouse; conditions: for TNFα-mediated killing in Rb1cc1 KO cells: Rb1cc1 KO MC38 cells, 25 μM z-VAD-FMK or 50 μM Nec-1
Protocol: as §1

[5] = system: MC38 cells; test: Western blots of MC38 cell lysates (caspase-8, p62, Iκ-Bα, phospho-S6); format: cell-based, mouse; conditions: 5 μM autophinib
Protocol: as §2

[6] = system: HCT-116 and HeLa human cancer cells; test: TNFα- and TRAIL-mediated killing of human cancer cells with or without autophinib, cell viability; format: cell-based; conditions: 5 μM autophinib, 24 hours
Protocol: as §1

[7] = system: HCT-116 and HeLa human cancer cells; test: Western blots of HCT-116 and HeLa cells after TRAIL with or without autophinib; format: cell-based; conditions: human cancer cells (HCT-116, HeLa), 10 or 50 ng/ml TRAIL, 24 hours
Protocol: as §2

[8] = system: CT26, B16F10, 4T1, EMT6, MC38 tumor cell lines; test: TNFα-induced caspase-8 activation and apoptosis in a panel of tumor cell lines; format: cell-based, mouse; conditions: 24 hours
Protocol: as §1
Whole cell lysates were prepared in tris-glycine SDS sample buffer (ThermoFisher) containing 5% 2-mercaptoethanol. Western blotting was performed by conventional techniques using tris-glycine polyacrylamide SDS gels (ThermoFisher) and PVDF membranes (BioRad). Blots were blocked in 5% milk powder and 0.5% Tween-20 in TBS and then incubated overnight with primary antibodies. After addition of secondary antibodies, membranes were incubated with SuperSignal West Pico Plus or Femto substrate (ThermoFisher) and luminescence was captured with a C300 imager (Azure Biosystems). […]

## C[C@@H]1COCCN1c1cc(=O)n2c(n1)N(Cc1cncc(Cl)c1)[C@H](C(F)(F)F)CC2 [SAR405]
[1]
  killing by TNFα in multiple mouse and human cancer cell lines: significantly increased
[1]; listed as SAR-405
  killing by TNFα in multiple mouse and human cancer cell lines: sensitizes
[2]
  p62 levels: significantly increased
  TNFα-induced activation of caspase-8: enhanced
[3]
  tumor cell killing by human T cells with breast tumor antigen×CD3 bispecific antibody: significantly increased

## Cc1cc(Nc2cc(Cl)nc(Oc3ccc([N+](=O)[O-])cc3)n2)n[nH]1 [autophinib]
[4]; MC38 cells, 10 ng/ml TNFα, 5 μM autophinib, 16 hours
  TNFα-mediated killing (relative cell viability): increased
[5]; 10 ng/ml TNFα 30 minutes
  TNFα-mediated degradation of Iκ-Bα: did not affect
[5]; 10 ng/ml TNFα 4 hours
  TNFα-mediated caspase-8 activation: increased
[5]; 4 hours
  levels of p62: significantly increased
[1]
  killing by TNFα in multiple mouse and human cancer cell lines: significantly increased; also recorded: sensitizes
[2]
  p62 levels: significantly increased
  TNFα-induced activation of caspase-8: enhanced
[6]; HCT-116 (10 ng/ml TNFα or TRAIL), HeLa (50 ng/ml TRAIL)
  sensitization to TNFα- and TRAIL-mediated killing: sensitizes
[6]; human cancer cells (HCT-116, HeLa), 10 or 50 ng/ml TRAIL
  induction of apoptosis by TRAIL: increased
[7]
  activation of caspase-8 by TRAIL: increased

## CN1C(=O)C(Cc2c[nH]c3ccccc23)NC1=S (stereo not drawn) [necropsis inhibitor]
[4]; 24 hours
  TNFα-mediated killing in Rb1cc1 KO cells: had no effect

## COC(=O)C[C@H](NC(=O)[C@H](C)NC(=O)[C@@H](NC(=O)OCc1ccccc1)C(C)C)C(=O)CF [z-VAD-FMK] (Cbz-Val-Ala-Asp(OMe)-CH2F)
[4]; 25 μM z-VAD-FMK, 10 ng/ml TNFα, 24 hours
  TNFα killing of MC38 cells in presence of caspase inhibitor: blocked
[4]; 24 hours
  TNFα-mediated killing in Rb1cc1 KO cells: blocked

B1: TNFα: Recombinant mouse and human TNFα from PeproTech (protein)
chain: LRSSSQNSSDKPVAHVVANHQVEEQLEWLSQRANALLANGMDLKDNQLVVPADGLYLVYSQVLFKGQGCPDYVLLTHTVSRFAISYQEKVNLLSAVKSPCPKDTPEGAELKPWYEPIYLGGVFQLEKGDQLSAEVNLPKYLDFAESGQVYFGVIAL
[4]; 10 ng/ml TNFα, 24 hours
  MC38 cell death by soluble TNFα: promoted MC38 cell death
[8]; CT26, B16F10, 4T1 cells
  killing by TNFα: not killed
[8]; EMT6 and MC38 cells
  TNFα-induced caspase-8 activation and apoptosis: exhibited TNFα-induced caspase-8 activation and apoptosis
